According to US20170258930A1, “SKIN PENETRATING PEPTIDES (SPPS) AND METHODS OF USE THEREFOR” (The Regents of the University of California, priority 2014, published 2017):

tested on: full thickness porcine skin; assay: Phage display library (PDL) screening for skin penetrating peptides on porcine skin in Franz diffusion cells; type: in vitro ADME; details: after third round of screening; phage-displayed 12-mer peptides; four different skin samples (n = 4); receptor collected after 24 hours
Procedure: Phage Display Library (PDL) screening was performed on full thickness porcine skin using Franz diffusion cells. Porcine skin was sandwiched in between the donor and receptor compartments in such a way that SC faced the donor compartment. Phosphate-buffered saline (PBS: 10 mM), pH 7.4 (12 ml) was added in the receptor compartment. The skin was equilibrated at 37° C. for 0.5-1 hours before the experiment. The skin integrity was determined by measuring the skin conductivity.
To perform PDL screening, 1×10^11 plaque forming units (pfu) of phages from a 12-mer phage display peptide library (PDL) were added into the donor compartment and covered with parafilm to maintain the occlusive condition. Phage particles which permeated across the skin were collected from the receptor chamber after 24 hours and amplified using a standard M13 phage amplification protocol. Amplified pool of phages (1×10^11 pfu) was loaded again in the donor chamber for another round of screening. In this way, three rounds of screenings were performed.
After third round of screening, DNAs were isolated from phages, which crossed the skin consistently in higher numbers, and sent for DNA sequencing to analyze the peptide present on their surface. After three round of screening, seven (7) peptide sequences that consistently crossed the skin were identified (see Table 3). […] The identified peptides, SEQ ID NOs: 1-7, are referred to herein as skin penetrating peptides (SPPs).

Sequence	Frequency (how many times a same peptide sequence was identified when 31 peptides were randomly picked from the receptor compartment)
NSLRNYDFLITM [NSLRNYDFLITM (SEQ ID NO: 7), 12-mer skin penetrating peptide (SPP) identified by phage display library screening on porcine skin]	2 out of 31
LVPDRMTAISRA [LVPDRMTAISRA (SEQ ID NO: 6), 12-mer skin penetrating peptide (SPP) identified by phage display library screening on porcine skin]	2 out of 31
GYGFSNTNSFFV [GYGFSNTNSFFV (SEQ ID NO: 3), 12-mer skin penetrating peptide (SPP) identified by phage display library screening on porcine skin]	3 out of 31
SHMQNRPASDEH [SHMQNRPASDEH (SEQ ID NO: 4), 12-mer skin penetrating peptide (SPP) identified by phage display library screening on porcine skin]	3 out of 31
AYNAGSILENNF [YNAGSILENNF (SEQ ID NO: 5), 12-mer skin penetrating peptide (SPP) identified by phage display library screening on porcine skin]	2 out of 31
HIITDPNMAEYL [HIITDPNMAEYL (SEQ ID NO: 1), 12-mer skin penetrating peptide (SPP) identified by phage display library screening on porcine skin]	8 out of 31
SYTQRADSTTLH [SYTQRADSTTLH (SEQ ID NO: 2), 12-mer skin penetrating peptide (SPP) identified by phage display library screening on porcine skin]	3 out of 31

same assay, conditions: after three rounds of screening, full thickness porcine skin

Sequence	Crossing of the skin by phage displaying the peptide (in words)
HIITDPNMAEYL [HIITDPNMAEYL (SEQ ID NO: 1), 12-mer skin penetrating peptide (SPP) identified by phage display library screening on porcine skin]	crossed the skin at very high frequency
